# Measured values reported in patent publication US20150031628A1, “METHODS AND FORMULATIONS FOR CONVERTING INTRAVENOUS AND INJECTABLE DRUGS INTO ORAL DOSAGE FORMS” (ZOMANEX, LLC, priority 2007, published 2015).
# How the values were obtained:
# in vivo [1] = details: female, beagle, dog, plasma, po, 20 mg
# Experimental: (§1) To these ends, pharmacokinetic studies were performed in five naïve, female beagle dogs with each drug dosed in a formulation system using a crossover design, with a one week wash out period between doses. […] Following a 16-hour fast, the animals were fed a small amount (approximately ¼ can) of Hill/s Science Diet A/D and thirty minutes later each animal was orally dosed with one of the formulations of the appropriate test article. Blood samples were drawn 0.5, 1.0, 1.5, 3.0, 4.5, 8.0, and 24 hours after dosing.
# Solid Preparation—Paclitaxel. Solid Paclitaxel (300 mg), soy sterols (300 mg) and lysolecithin (900 mg) were added to a 30 mL glass tube and chloroform (3.0 ml) was added. After the solids were dissolved with gentle heating in a 60° C. water bath, the solvent was removed under a stream of nitrogen. The mass was then pumped on under vacuum to remove residual solvent. Addition of water (15 mL) softened the solid mass and the mixture was then sonicated in an ice bath for two minutes on 40% power, followed by two minutes sonication on 50% power and then two minutes sonication on 60% power. […]
# Absorption Experiment With Solid Formulations. After dosing with each formulation, all the blood samples were processed and analyzed as described for the liquid formulations.
# in vivo [2] = details: female, beagle, dog, plasma, po, 20 mg; remark: listed apart in the source
# Experimental: as §1
# The liquid was then dosed to the animal with a syringe. Water was then added to the syringe and the washing was administered to the dog.
# After dosing with each formulation, all the blood samples were collected in a sodium heparin anticoagulant tube, processed to plasma and frozen at −80° C. Plasma Paclitaxel concentration at each time point for each of the five dogs was determined by high throughput liquid chromatographic-tandem mass spectrometric quantification at Bioanalytical Systems (McMinnville, Oreg.). […] To quantitate the absorption changes, the area under the curve (AUC0→∞) was calculated for each formulation system and the results are shown in the Table below.
compound,measurement,setting,value
"CC(=O)O[C@H]1C(=O)[C@@]2(C)[C@H]([C@H](OC(=O)c3ccccc3)[C@]3(O)C[C@H](OC(=O)[C@H](O)[C@@H](NC(=O)c4ccccc4)c4ccccc4)C(C)=C1C3(C)C)[C@]1(OC(C)=O)CO[C@@H]1C[C@@H]2O [Unformulated Paclitaxel, Paclitaxel]",AUC(0-inf),in vivo [1],28.9 ± 7.1 ng·h/mL
same,AUC(0-inf),in vivo [2],28.9 ± 7.1 ng·h/mL
